Experimental data: PubChem BioAssay AID2060884 (Molecular Pharmacology Branch, DTP, NCI, 2025)

Test system: NCI-H929 complex spheroids, viability % test/control
Experiment: Anticancer human tumor NCI-H929 cell line growth inhibition [RAS];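 also: compound exposure lasted seven days before viability was read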;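 as to viability, T/C: 100% = DMSO vehicle control viability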
Conditions: for IC50: curve of first compound; for viability, T/C: stronger effect = lower value
Procedure, shortened: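 Agents were tested in combination matrices in half-log decrements from a top concentration at or near clinical Cmax (10 microM if undetermined). Targets were multi-cell spheroids of tumour lines plus HUVEC and MSC stromal cells.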

[1] = second compound 0.000949 µM, first compound 0.0316 µM
[2] = second compound 0.000949 µM, first compound 0.1 µM
[3] = second compound 0.000949 µM, first compound 0.316 µM
[4] = second compound 0.000949 µM, first compound 1 µM
[5] = second compound 0.000949 µM, first compound 3.16 µM
[6] = second compound 0.000949 µM, first compound 10 µM
[7] = second compound 0.003 µM, first compound 0.0316 µM
[8] = second compound 0.003 µM, first compound 0.1 µM
[9] = second compound 0.003 µM, first compound 0.316 µM
[10] = second compound 0.003 µM, first compound 1 µM
[11] = second compound 0.003 µM, first compound 3.16 µM
[12] = second compound 0.003 µM, first compound 10 µM
[13] = second compound 0.00949 µM, first compound 0.0316 µM
[14] = second compound 0.00949 µM, first compound 0.1 µM
[15] = second compound 0.00949 µM, first compound 0.316 µM
[16] = second compound 0.00949 µM, first compound 1 µM
[17] = second compound 0.00949 µM, first compound 3.16 µM
[18] = second compound 0.00949 µM, first compound 10 µM
[19] = second compound 0.03 µM, first compound 0.0316 µM
[20] = second compound 0.03 µM, first compound 0.1 µM
[21] = second compound 0.03 µM, first compound 0.316 µM
[22] = second compound 0.03 µM, first compound 1 µM
[23] = second compound 0.03 µM, first compound 3.16 µM
[24] = second compound 0.03 µM, first compound 10 µM
[25] = second compound 0.0949 µM, first compound 0.0316 µM
[26] = second compound 0.0949 µM, first compound 0.1 µM
[27] = second compound 0.0949 µM, first compound 0.316 µM
[28] = second compound 0.0949 µM, first compound 1 µM
[29] = second compound 0.0949 µM, first compound 3.16 µM
[30] = second compound 0.0949 µM, first compound 10 µM
[31] = second compound 0.3 µM, first compound 0.0316 µM
[32] = second compound 0.3 µM, first compound 0.1 µM
[33] = second compound 0.3 µM, first compound 0.316 µM
[34] = second compound 0.3 µM, first compound 1 µM
[35] = second compound 0.3 µM, first compound 3.16 µM
[36] = second compound 0.3 µM, first compound 10 µM

## CC(C)NCC(C(=O)N1CCN(c2ncnc3c2C(C)CC3O)CC1)c1ccc(Cl)cc1 (stereo unspecified) + CCn1c(-c2cccnc2C(C)OC)c2c3cc(ccc31)N1CCOC(CC(NC(=O)C(C(C)C)N(C)C(=O)C3(F)CCN(C(=O)C#CC(C)(C)N(C)C)CC3)C(=O)N3CCCC(N3)C(=O)OCC(C)(C)C2)C1
Second compound 0.000949 µM
  IC50: 1.31 µM
Second compound 0.003 µM
  IC50: 1.43 µM
Second compound 0.00949 µM
  IC50: 1.64 µM
Second compound 0.03 µM
  IC50: 1.45 µM
Second compound 0.0949 µM
  IC50: 1.2 µM
Second compound 0.3 µM
  IC50: 0.986 µM
[1]
  viability, T/C: 106%
[2]
  viability, T/C: 96.4%
[3]
  viability, T/C: 98.7%
[4]
  viability, T/C: 59.4%
[5]
  viability, T/C: 16.5%
[6]
  viability, T/C: 2.67%
[7]
  viability, T/C: 99.5%
[8]
  viability, T/C: 101%
[9]
  viability, T/C: 95%
[10]
  viability, T/C: 65.4%
[11]
  viability, T/C: 15.5%
[12]
  viability, T/C: 2.08%
[13]
  viability, T/C: 98.6%
[14]
  viability, T/C: 97%
[15]
  viability, T/C: 99%
[16]
  viability, T/C: 68.7%
[17]
  viability, T/C: 23.8%
[18]
  viability, T/C: 2.36%
[19]
  viability, T/C: 101%
[20]
  viability, T/C: 100%
[21]
  viability, T/C: 98.5%
[22]
  viability, T/C: 67.7%
[23]
  viability, T/C: 12.6%
[24]
  viability, T/C: 1.6%
[25]
  viability, T/C: 101%
[26]
  viability, T/C: 102%
[27]
  viability, T/C: 97.4%
[28]
  viability, T/C: 57.4%
[29]
  viability, T/C: 9.37%
[30]
  viability, T/C: 1.65%
[31]
  viability, T/C: 103%
[32]
  viability, T/C: 103%
[33]
  viability, T/C: 95.1%
[34]
  viability, T/C: 49.6%
[35]
  viability, T/C: 6.6%
[36]
  viability, T/C: 1.34%

## CC(Nc1ccc2c(c1)OCCn1cc(N3C(=O)OCC3C(F)F)nc1-2)C(N)=O (stereo unspecified) + CCn1c(-c2cccnc2C(C)OC)c2c3cc(ccc31)N1CCOC(CC(NC(=O)C(C(C)C)N(C)C(=O)C3(F)CCN(C(=O)C#CC(C)(C)N(C)C)CC3)C(=O)N3CCCC(N3)C(=O)OCC(C)(C)C2)C1
Second compound 0.000949 µM
  IC50: 6.45 µM
Second compound 0.003 µM
  IC50: 6.54 µM
Second compound 0.00949 µM
  IC50: 5.96 µM
Second compound 0.03 µM
  IC50: 5.96 µM
Second compound 0.0949 µM
  IC50: 5.44 µM
Second compound 0.3 µM
  IC50: 4.4 µM
[1]
  viability, T/C: 103%
[2]
  viability, T/C: 94.3%
[3]
  viability, T/C: 96.2%
[4]
  viability, T/C: 87.2%
[5]
  viability, T/C: 83.5%
[6]
  viability, T/C: 30.4%
[7]
  viability, T/C: 99.5%
[8]
  viability, T/C: 96.1%
[9]
  viability, T/C: 94.5%
[10]
  viability, T/C: 90.5%
[11]
  viability, T/C: 79.8%
[12]
  viability, T/C: 32.7%
[13]
  viability, T/C: 98.7%
[14]
  viability, T/C: 97.1%
[15]
  viability, T/C: 96.5%
[16]
  viability, T/C: 92%
[17]
  viability, T/C: 85.3%
[18]
  viability, T/C: 21.6%
[19]
  viability, T/C: 94.1%
[20]
  viability, T/C: 96.6%
[21]
  viability, T/C: 96.5%
[22]
  viability, T/C: 91.8%
[23]
  viability, T/C: 83.1%
[24]
  viability, T/C: 22.9%
[25]
  viability, T/C: 96.9%
[26]
  viability, T/C: 98.1%
[27]
  viability, T/C: 94.5%
[28]
  viability, T/C: 91.1%
[29]
  viability, T/C: 80.2%
[30]
  viability, T/C: 17%
[31]
  viability, T/C: 101%
[32]
  viability, T/C: 101%
[33]
  viability, T/C: 97.2%
[34]
  viability, T/C: 86%
[35]
  viability, T/C: 65.6%
[36]
  viability, T/C: 13.2%

## O=C(c1ccc(F)c(F)c1Nc1ccc(I)cc1F)N1CC(O)([C@@H]2CCCCN2)C1 + CCn1c(-c2cccnc2C(C)OC)c2c3cc(ccc31)N1CCOC(CC(NC(=O)C(C(C)C)N(C)C(=O)C3(F)CCN(C(=O)C#CC(C)(C)N(C)C)CC3)C(=O)N3CCCC(N3)C(=O)OCC(C)(C)C2)C1
Second compound 0.000949 µM
  IC50: 0.663 µM
Second compound 0.003 µM
  IC50: 0.688 µM
Second compound 0.00949 µM
  IC50: 0.686 µM
Second compound 0.03 µM
  IC50: 0.661 µM
Second compound 0.0949 µM
  IC50: 0.636 µM
Second compound 0.3 µM
  IC50: 0.597 µM
Second compound 0.000949 µM, first compound 0.00316 µM
  viability, T/C: 109%
Second compound 0.000949 µM, first compound 0.01 µM
  viability, T/C: 97.9%
[1]
  viability, T/C: 103%
[2]
  viability, T/C: 92.5%
[3]
  viability, T/C: 98.3%
[4]
  viability, T/C: 23.2%
Second compound 0.003 µM, first compound 0.00316 µM
  viability, T/C: 99.2%
Second compound 0.003 µM, first compound 0.01 µM
  viability, T/C: 102%
[7]
  viability, T/C: 101%
[8]
  viability, T/C: 93.7%
[9]
  viability, T/C: 98.4%
[10]
  viability, T/C: 26.8%
Second compound 0.00949 µM, first compound 0.00316 µM
  viability, T/C: 97.2%
Second compound 0.00949 µM, first compound 0.01 µM
  viability, T/C: 102%
[13]
  viability, T/C: 104%
[14]
  viability, T/C: 95.1%
[15]
  viability, T/C: 101%
[16]
  viability, T/C: 25.5%
Second compound 0.03 µM, first compound 0.00316 µM
  viability, T/C: 98.6%
Second compound 0.03 µM, first compound 0.01 µM
  viability, T/C: 100%
[19]
  viability, T/C: 102%
[20]
  viability, T/C: 96.9%
[21]
  viability, T/C: 101%
[22]
  viability, T/C: 21.8%
Second compound 0.0949 µM, first compound 0.00316 µM
  viability, T/C: 96.6%
Second compound 0.0949 µM, first compound 0.01 µM
  viability, T/C: 99.7%
[25]
  viability, T/C: 101%
[26]
  viability, T/C: 98.4%
[27]
  viability, T/C: 103%
[28]
  viability, T/C: 17.7%
Second compound 0.3 µM, first compound 0.00316 µM
  viability, T/C: 100%
Second compound 0.3 µM, first compound 0.01 µM
  viability, T/C: 101%
[31]
  viability, T/C: 101%
[32]
  viability, T/C: 100%
[33]
  viability, T/C: 105%
[34]
  viability, T/C: 8.18%
